In ChEMBL document CHEMBL5365427, “Discovery and Structural Optimization of Covalent ZAP-70 Kinase Inhibitors against Psoriasis” (J Med Chem, 2023):
Activity calls are given as the source filed them. No cut-off for these calls is given here.

What was measured:
Mus musculus = assay: Anti-inflammatory activity in imiquimod-induced BALB/c mouse psoriasis model assessed as decrease in clinical sign of psoriasis in skin at TOP administration, 2 % applied for 7 days; format: functional, organism-based; details: time 7.0 day
[1] = biological target: T1, Tyrosine-protein kinase ZAP-70 (Homo sapiens, UniProt P43403); assay: Inhibition of ZAP-70 (unknown origin) using ULight-TK peptide as substrate incubated for 120 mins in presence of ATP by Lance Ultra Kinase assay
T1 sequence (P43403 whole entry): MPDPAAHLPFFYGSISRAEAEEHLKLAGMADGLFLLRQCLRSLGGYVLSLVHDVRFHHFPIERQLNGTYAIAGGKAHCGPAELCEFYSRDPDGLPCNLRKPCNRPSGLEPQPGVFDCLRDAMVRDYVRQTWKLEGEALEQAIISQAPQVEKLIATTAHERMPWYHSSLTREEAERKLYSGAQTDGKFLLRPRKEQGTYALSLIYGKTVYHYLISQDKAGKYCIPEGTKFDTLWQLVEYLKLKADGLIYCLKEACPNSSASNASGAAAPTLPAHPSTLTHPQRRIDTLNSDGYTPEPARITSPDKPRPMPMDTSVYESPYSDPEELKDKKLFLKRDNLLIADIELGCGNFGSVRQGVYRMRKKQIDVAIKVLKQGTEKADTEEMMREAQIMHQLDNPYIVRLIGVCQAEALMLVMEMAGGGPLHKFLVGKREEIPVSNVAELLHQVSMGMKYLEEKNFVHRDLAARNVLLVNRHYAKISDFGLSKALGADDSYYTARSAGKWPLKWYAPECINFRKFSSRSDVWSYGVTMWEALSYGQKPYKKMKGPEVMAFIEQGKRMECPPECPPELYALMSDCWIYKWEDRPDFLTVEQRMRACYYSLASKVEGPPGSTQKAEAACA

Splenocyte = assay: Immunosuppressive activity in BALB/c mouse Splenocyte assessed as reduction in frequency of CD25 positive CD4 positive T cells at 100 to 400 nM incubated for 48 hrs by flow cytometry analysis; format: functional, cell-based; details: dose 100-400 nM
[2] = biological target: T2, Bone morphogenetic protein receptor type-2 (Homo sapiens) (UniProt Q13873); assay: Inhibition of BMPR2 (unknown origin) at 1 uM relative to control
T2 sequence (whole entry): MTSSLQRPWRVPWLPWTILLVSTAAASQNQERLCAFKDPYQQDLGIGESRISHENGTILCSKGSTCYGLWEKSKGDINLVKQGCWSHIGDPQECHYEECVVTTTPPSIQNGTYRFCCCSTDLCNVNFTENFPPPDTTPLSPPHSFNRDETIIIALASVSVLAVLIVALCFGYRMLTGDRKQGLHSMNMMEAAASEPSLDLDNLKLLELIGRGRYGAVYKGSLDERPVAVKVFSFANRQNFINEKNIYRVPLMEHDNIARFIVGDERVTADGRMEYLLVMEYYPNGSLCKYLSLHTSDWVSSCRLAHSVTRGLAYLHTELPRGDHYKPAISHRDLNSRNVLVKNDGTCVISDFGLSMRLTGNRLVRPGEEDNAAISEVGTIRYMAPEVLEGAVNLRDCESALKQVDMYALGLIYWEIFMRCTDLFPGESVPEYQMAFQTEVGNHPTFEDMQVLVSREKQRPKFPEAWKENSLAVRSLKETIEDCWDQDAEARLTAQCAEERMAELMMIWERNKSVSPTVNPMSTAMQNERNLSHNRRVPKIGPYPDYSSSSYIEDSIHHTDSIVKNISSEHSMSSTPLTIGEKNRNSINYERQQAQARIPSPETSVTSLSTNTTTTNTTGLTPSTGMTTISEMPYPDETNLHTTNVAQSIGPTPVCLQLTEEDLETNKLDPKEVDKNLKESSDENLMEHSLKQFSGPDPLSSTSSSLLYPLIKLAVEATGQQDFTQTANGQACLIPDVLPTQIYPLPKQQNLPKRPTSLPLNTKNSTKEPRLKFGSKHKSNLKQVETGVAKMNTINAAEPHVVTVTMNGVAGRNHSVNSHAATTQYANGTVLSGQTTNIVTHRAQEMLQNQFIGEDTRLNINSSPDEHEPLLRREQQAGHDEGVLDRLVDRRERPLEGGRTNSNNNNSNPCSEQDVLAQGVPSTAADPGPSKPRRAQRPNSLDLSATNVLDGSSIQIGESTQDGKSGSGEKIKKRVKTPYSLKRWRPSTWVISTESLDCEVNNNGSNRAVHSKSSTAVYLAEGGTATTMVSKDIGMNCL

[3] = biological target: Mitogen-activated protein kinase 8 (Homo sapiens) (UniProt P45983); assay: Inhibition of JNK1 (unknown origin) at 1 uM relative to control
Sequence of Mitogen-activated protein kinase 8 (Homo sapiens) (P45983 whole entry): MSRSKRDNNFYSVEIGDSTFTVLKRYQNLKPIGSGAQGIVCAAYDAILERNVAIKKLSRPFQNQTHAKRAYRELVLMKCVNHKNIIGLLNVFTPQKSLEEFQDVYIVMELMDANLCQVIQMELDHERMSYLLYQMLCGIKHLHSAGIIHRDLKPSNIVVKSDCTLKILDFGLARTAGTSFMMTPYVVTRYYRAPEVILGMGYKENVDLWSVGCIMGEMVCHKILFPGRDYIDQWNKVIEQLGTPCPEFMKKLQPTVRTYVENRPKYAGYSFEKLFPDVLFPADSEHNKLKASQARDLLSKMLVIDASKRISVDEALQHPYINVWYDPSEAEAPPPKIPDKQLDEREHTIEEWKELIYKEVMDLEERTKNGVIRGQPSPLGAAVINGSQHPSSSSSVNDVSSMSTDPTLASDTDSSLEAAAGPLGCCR

Jurkat = assay: Immunosuppressive activity in anti-CD3/CD28 stimulated human Jurkat cells assessed as reduction in LAT phosphorylation level at 100 to 400 nM incubated for 48 hrs by Western blotting analysis; format: functional, cell-based; details: dose 100-400 nM

IC50 [1]: 0.0146 µM
inhibition [2]: > 90%
inhibition [3]: > 90%
SMILES: C=CC(=O)Nc1cc(CNc2nc(Nc3ccc(N4CCOCC4)c(OC)c3)c(C(N)=O)c3nccn23)ccc1Cl
Activity (Mus musculus): Active
Activity (Splenocyte): Active
Activity (Jurkat): Active
